# In article PMC7313537 (PLoS ONE, 2020):
# Legend:
# Assay in all cases: Broader kinase panel (PerkinElmer)
# Assay type in all cases: biochemical
# Conditions in all cases: 100 nM; read-out: Average Percent Inhibition
# [1] = target: EPHA2 (Homo sapiens, UniProt P29317)
# Description: (§1) […]. […] […].
# [2] = target: T1, PKC-alpha (Homo sapiens, UniProt P17252)
# T1 construct: purchased In-house HTRF panel (56 kinases) and PerkinElmer (161-kinase panel)
# Description: as §1
# [3] = target: T2, MST3 (STK24) (Homo sapiens, UniProt Q9Y6E0)
# T2 construct: purchased In-house HTRF panel (56 kinases) and PerkinElmer (161-kinase panel)
# Description: as §1
# [4] = target: T3, EPHB1 (Homo sapiens, UniProt P54762)
# T3 construct: purchased In-house HTRF panel (56 kinases) and PerkinElmer (161-kinase panel)
# Description: as §1
# [5] = target: T4, AurB (Homo sapiens, UniProt Q96GD4)
# T4 construct: purchased In-house HTRF panel (56 kinases) and PerkinElmer (161-kinase panel)
# Description: as §1
# [6] = target: PAK4 (Homo sapiens, UniProt O96013)
# Description: as §1
# [7] = target: T5, HIPK2 (Homo sapiens, UniProt Q9H2X6)
# T5 construct: purchased In-house HTRF panel (56 kinases) and PerkinElmer (161-kinase panel)
# Description: as §1
# [8] = target: T6, PKC-epsilon (Homo sapiens, UniProt Q02156)
# T6 construct: purchased In-house HTRF panel (56 kinases) and PerkinElmer (161-kinase panel)
# Description: as §1
# [9] = target: T7, PDGFR-alpha (V561D) (Homo sapiens, UniProt P16234, V561D)
# T7 construct: purchased In-house HTRF panel (56 kinases) and PerkinElmer (161-kinase panel)
# Description: as §1
# [10] = target: T8, CK1-epsilon (Homo sapiens, UniProt P49674)
# T8 construct: purchased In-house HTRF panel (56 kinases) and PerkinElmer (161-kinase panel)
# Description: as §1
# [11] = target: T9, EPHA8 (Homo sapiens, UniProt P29322)
# T9 construct: purchased In-house HTRF panel (56 kinases) and PerkinElmer (161-kinase panel)
# Description: as §1
# [12] = target: T10, DYRK1B (Homo sapiens, UniProt Q9Y463)
# T10 construct: purchased In-house HTRF panel (56 kinases) and PerkinElmer (161-kinase panel)
# Description: as §1
# [13] = target: T11, Ca MKII_gamma (Homo sapiens, UniProt Q13555)
# T11 construct: purchased In-house HTRF panel (56 kinases) and PerkinElmer (161-kinase panel)
# Description: as §1
# [14] = target: T12, SRM (SRMS) (Homo sapiens, UniProt Q9H3Y6)
# T12 construct: purchased In-house HTRF panel (56 kinases) and PerkinElmer (161-kinase panel)
# Description: as §1
# [15] = target: T13, EGFR (ErbB1) T790M L858R (Homo sapiens, UniProt P00533, L858R/T790M)
# T13 construct: purchased In-house HTRF panel (56 kinases) and PerkinElmer (161-kinase panel)
# Description: as §1
# [16] = target: T14, BRSK1 (Homo sapiens, UniProt Q8TDC3)
# T14 construct: purchased In-house HTRF panel (56 kinases) and PerkinElmer (161-kinase panel)
# Description: as §1
# [17] = target: T15, MST1R (Homo sapiens, UniProt Q04912)
# T15 construct: purchased In-house HTRF panel (56 kinases) and PerkinElmer (161-kinase panel)
# Description: as §1
# [18] = target: T16, Erk1 (Homo sapiens, UniProt P27361)
# T16 construct: purchased In-house HTRF panel (56 kinases) and PerkinElmer (161-kinase panel)
# Description: as §1
# [19] = target: T17, CK1g3 (CSNK1G3) (Homo sapiens, UniProt Q9Y6M4)
# T17 construct: purchased In-house HTRF panel (56 kinases) and PerkinElmer (161-kinase panel)
# Description: as §1
# [20] = target: T18, Casein kinase 1g2 (Homo sapiens, UniProt P78368)
# T18 construct: purchased In-house HTRF panel (56 kinases) and PerkinElmer (161-kinase panel)
# Description: as §1
# [21] = target: T19, BMX (Homo sapiens, UniProt P51813)
# T19 construct: purchased In-house HTRF panel (56 kinases) and PerkinElmer (161-kinase panel)
# Description: as §1
# [22] = target: T20, PKCz (Homo sapiens, UniProt Q05513)
# T20 construct: purchased In-house HTRF panel (56 kinases) and PerkinElmer (161-kinase panel)
# Description: as §1
# [23] = target: T21, TSSK2 (Homo sapiens, UniProt Q96PF2)
# T21 construct: purchased In-house HTRF panel (56 kinases) and PerkinElmer (161-kinase panel)
# Description: as §1
# [24] = target: T22, Arg (Homo sapiens, UniProt P42684)
# T22 construct: purchased In-house HTRF panel (56 kinases) and PerkinElmer (161-kinase panel)
# Description: as §1
# [25] = target: T23, MSK1 (Homo sapiens, UniProt O75582)
# T23 construct: purchased In-house HTRF panel (56 kinases) and PerkinElmer (161-kinase panel)
# Description: as §1
# [26] = target: T24, IKK-beta (Homo sapiens, UniProt O14920)
# T24 construct: purchased In-house HTRF panel (56 kinases) and PerkinElmer (161-kinase panel)
# Description: as §1
# [27] = target: T25, TSSK1 (Homo sapiens, UniProt Q9BXA7)
# T25 construct: purchased In-house HTRF panel (56 kinases) and PerkinElmer (161-kinase panel)
# Description: as §1
# [28] = target: T26, EPHA3 (Homo sapiens, UniProt P29320)
# T26 construct: purchased In-house HTRF panel (56 kinases) and PerkinElmer (161-kinase panel)
# Description: as §1
# [29] = target: T27, BLK (Homo sapiens, UniProt P51451)
# T27 construct: purchased In-house HTRF panel (56 kinases) and PerkinElmer (161-kinase panel)
# Description: as §1
# [30] = target: T28, KIT (Homo sapiens, UniProt P10721)
# T28 construct: purchased In-house HTRF panel (56 kinases) and PerkinElmer (161-kinase panel)
# Description: as §1
# [31] = target: SYK (Homo sapiens, UniProt P43405)
# Description: as §1
# [32] = target: T29, PKC-theta (Homo sapiens, UniProt Q04759)
# T29 construct: purchased In-house HTRF panel (56 kinases) and PerkinElmer (161-kinase panel)
# Description: as §1
# [33] = target: T30, CK1-gamma 1 (Homo sapiens, UniProt Q9HCP0)
# T30 construct: purchased In-house HTRF panel (56 kinases) and PerkinElmer (161-kinase panel)
# Description: as §1
# [34] = target: T31, SGK2 (Homo sapiens, UniProt Q9HBY8)
# T31 construct: purchased In-house HTRF panel (56 kinases) and PerkinElmer (161-kinase panel)
# Description: as §1
# [35] = target: T32, ABL (Homo sapiens, UniProt P00519)
# T32 construct: purchased In-house HTRF panel (56 kinases) and PerkinElmer (161-kinase panel)
# Description: as §1
# [36] = target: T33, Abl (T315I) (Homo sapiens, UniProt P00519, T315I)
# T33 construct: purchased In-house HTRF panel (56 kinases) and PerkinElmer (161-kinase panel)
# Description: as §1
# [37] = target: BTK (Homo sapiens, UniProt Q06187)
# Description: as §1
# [38] = target: T34, KIT[T670I] (Homo sapiens, UniProt P10721, T670I)
# T34 construct: purchased In-house HTRF panel (56 kinases) and PerkinElmer (161-kinase panel)
# Description: as §1
# [39] = target: T35, p38-beta 2 (Homo sapiens, UniProt Q15759)
# T35 construct: purchased In-house HTRF panel (56 kinases) and PerkinElmer (161-kinase panel)
# Description: as §1
# [40] = target: T36, PKD2 (Homo sapiens, UniProt Q9BZL6)
# T36 construct: purchased In-house HTRF panel (56 kinases) and PerkinElmer (161-kinase panel)
# Description: as §1
# [41] = target: T37, PKC-gamma (Homo sapiens, UniProt P05129)
# T37 construct: purchased In-house HTRF panel (56 kinases) and PerkinElmer (161-kinase panel)
# Description: as §1
# [42] = target: T38, p38-gamma (Homo sapiens, UniProt P53778)
# T38 construct: purchased In-house HTRF panel (56 kinases) and PerkinElmer (161-kinase panel)
# Description: as §1
# [43] = target: CDK2 (Homo sapiens, UniProt P24941)
# Description: as §1
# T12 sequence (Q9H3Y6 whole entry): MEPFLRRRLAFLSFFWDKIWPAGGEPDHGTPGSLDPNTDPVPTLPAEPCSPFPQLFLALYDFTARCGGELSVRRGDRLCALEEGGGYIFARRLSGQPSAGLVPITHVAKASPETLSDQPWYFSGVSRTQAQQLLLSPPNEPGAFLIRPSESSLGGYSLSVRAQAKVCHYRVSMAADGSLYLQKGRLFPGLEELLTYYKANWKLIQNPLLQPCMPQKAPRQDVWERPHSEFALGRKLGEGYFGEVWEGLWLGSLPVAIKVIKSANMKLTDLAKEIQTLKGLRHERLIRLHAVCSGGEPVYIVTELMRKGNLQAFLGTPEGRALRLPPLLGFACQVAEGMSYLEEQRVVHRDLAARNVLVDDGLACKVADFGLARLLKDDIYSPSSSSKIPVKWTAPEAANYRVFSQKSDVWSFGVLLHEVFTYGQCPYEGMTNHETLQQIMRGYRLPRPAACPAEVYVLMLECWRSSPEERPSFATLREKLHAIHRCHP
# T11 sequence (Q13555 whole entry): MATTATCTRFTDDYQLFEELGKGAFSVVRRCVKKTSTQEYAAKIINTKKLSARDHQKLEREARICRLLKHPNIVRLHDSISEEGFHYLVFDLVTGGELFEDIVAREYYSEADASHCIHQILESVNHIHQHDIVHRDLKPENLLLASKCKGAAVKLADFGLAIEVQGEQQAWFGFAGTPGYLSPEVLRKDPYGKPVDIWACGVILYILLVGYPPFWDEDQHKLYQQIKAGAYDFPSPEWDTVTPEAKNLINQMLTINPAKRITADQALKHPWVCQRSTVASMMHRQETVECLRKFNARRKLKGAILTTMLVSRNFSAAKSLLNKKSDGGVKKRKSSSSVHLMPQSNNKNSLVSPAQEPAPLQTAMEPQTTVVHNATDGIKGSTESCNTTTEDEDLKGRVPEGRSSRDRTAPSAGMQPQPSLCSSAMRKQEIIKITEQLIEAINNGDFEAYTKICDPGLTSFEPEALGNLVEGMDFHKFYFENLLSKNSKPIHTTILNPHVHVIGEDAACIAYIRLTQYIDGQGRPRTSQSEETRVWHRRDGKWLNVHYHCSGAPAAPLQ
# T7 sequence (P16234 24-1089 V561D): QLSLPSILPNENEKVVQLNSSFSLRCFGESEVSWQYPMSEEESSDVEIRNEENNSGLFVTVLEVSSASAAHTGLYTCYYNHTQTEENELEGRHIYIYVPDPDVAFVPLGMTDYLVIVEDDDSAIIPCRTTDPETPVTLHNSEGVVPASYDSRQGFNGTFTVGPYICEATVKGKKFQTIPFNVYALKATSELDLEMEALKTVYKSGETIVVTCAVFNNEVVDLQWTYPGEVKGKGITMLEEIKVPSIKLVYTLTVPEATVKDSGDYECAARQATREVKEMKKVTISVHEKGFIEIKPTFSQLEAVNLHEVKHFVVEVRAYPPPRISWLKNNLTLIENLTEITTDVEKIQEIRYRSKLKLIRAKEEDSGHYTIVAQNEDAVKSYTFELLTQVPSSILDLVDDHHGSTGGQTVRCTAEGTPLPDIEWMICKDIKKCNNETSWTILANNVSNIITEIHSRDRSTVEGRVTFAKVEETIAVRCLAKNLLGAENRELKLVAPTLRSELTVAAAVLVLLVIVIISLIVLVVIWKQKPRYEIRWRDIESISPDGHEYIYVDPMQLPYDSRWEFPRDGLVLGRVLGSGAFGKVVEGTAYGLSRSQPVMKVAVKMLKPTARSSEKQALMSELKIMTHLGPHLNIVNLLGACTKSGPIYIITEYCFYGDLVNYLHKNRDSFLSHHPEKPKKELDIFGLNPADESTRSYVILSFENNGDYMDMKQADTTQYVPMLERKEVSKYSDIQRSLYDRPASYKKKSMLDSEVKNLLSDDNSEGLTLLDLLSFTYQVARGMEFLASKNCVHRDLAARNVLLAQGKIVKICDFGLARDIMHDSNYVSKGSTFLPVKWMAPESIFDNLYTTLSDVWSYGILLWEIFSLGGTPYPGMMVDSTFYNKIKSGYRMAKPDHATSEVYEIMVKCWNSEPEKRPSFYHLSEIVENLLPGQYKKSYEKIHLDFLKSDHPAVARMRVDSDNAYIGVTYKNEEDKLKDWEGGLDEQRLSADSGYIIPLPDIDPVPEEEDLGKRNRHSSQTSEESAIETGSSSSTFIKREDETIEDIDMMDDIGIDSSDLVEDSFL
# T28 sequence (P10721 26-976): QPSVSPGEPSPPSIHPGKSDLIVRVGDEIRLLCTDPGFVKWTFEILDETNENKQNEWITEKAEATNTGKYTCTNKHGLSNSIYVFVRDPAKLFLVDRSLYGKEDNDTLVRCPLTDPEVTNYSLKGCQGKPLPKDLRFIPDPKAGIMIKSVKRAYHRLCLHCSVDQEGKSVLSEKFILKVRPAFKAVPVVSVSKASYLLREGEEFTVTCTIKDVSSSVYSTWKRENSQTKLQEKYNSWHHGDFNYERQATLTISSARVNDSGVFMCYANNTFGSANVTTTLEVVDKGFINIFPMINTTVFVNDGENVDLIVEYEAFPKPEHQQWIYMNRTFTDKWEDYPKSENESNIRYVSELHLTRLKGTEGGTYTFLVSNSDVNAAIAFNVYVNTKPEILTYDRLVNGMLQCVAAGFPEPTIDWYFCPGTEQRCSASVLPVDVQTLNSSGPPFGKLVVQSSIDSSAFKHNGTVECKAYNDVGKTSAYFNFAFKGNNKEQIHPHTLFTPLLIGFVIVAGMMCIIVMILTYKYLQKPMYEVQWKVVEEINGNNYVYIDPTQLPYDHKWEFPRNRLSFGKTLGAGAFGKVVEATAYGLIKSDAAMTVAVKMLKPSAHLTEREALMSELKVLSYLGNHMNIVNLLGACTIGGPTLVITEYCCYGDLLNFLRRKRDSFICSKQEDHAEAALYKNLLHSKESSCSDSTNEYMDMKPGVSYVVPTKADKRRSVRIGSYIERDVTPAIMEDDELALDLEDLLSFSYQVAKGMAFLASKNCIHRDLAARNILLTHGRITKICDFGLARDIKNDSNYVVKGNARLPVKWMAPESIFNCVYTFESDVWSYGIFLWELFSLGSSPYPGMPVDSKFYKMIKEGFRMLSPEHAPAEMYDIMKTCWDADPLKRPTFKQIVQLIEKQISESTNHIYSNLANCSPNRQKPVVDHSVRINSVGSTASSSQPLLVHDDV
# T24 sequence (O14920 whole entry): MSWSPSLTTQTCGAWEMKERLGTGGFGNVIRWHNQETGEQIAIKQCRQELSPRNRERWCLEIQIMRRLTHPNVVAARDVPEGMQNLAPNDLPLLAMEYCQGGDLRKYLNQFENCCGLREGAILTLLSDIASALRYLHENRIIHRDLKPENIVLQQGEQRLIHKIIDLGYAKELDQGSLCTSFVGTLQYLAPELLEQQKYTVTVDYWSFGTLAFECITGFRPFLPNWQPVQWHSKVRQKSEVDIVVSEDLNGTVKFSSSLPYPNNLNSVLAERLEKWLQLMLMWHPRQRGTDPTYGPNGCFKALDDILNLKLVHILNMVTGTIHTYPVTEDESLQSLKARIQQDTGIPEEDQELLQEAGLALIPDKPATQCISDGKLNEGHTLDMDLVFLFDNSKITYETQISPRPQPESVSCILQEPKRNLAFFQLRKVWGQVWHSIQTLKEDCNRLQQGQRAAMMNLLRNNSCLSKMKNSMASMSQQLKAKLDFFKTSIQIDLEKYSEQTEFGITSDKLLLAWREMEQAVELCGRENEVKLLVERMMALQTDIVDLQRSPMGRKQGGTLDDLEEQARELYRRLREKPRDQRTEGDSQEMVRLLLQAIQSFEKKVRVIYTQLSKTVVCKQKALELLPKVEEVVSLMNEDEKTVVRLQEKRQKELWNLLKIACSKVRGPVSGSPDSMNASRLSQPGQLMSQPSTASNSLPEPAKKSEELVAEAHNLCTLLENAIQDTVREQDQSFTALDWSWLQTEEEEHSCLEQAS
# T4 sequence (Q96GD4 whole entry): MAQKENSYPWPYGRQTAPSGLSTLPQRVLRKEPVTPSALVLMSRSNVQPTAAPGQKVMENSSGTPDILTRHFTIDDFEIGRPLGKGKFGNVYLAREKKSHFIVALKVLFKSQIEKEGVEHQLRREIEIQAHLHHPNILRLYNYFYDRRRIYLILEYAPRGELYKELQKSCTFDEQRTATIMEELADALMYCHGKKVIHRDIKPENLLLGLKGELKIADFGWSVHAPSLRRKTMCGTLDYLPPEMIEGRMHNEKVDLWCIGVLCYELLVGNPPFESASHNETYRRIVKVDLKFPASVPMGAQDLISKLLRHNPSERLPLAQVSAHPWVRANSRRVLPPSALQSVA
# T34 sequence (P10721 26-976 T670I): as the sequence (P10721 26-976) above, with T645I counted along it
smiles,measurement,setting,value
"CCN1C(=O)N(c2c(F)c(OC)cc(OC)c2F)Cc2cnc3[nH]c(CN4CCOCC4)cc3c21 [INCB054828, pemigatinib]",inhibition at 0.1 µM,[1],3%
same,inhibition at 0.1 µM,[2],16%
same,inhibition at 0.1 µM,[3],7%
same,inhibition at 0.1 µM,[4],0%
same,inhibition at 0.1 µM,[5],11%
same,inhibition at 0.1 µM,[6],5%
same,inhibition at 0.1 µM,[7],-1%
same,inhibition at 0.1 µM,[8],1%
same,inhibition at 0.1 µM,[9],1%
same,inhibition at 0.1 µM,[10],-1%
same,inhibition at 0.1 µM,[11],-2%
same,inhibition at 0.1 µM,[12],7%
same,inhibition at 0.1 µM,[13],-9%
same,inhibition at 0.1 µM,[14],1%
same,inhibition at 0.1 µM,[15],5%
same,inhibition at 0.1 µM,[16],-4%
same,inhibition at 0.1 µM,[17],1%
same,inhibition at 0.1 µM,[18],1%
same,inhibition at 0.1 µM,[19],0%
same,inhibition at 0.1 µM,[20],-1%
same,inhibition at 0.1 µM,[21],3%
same,inhibition at 0.1 µM,[22],1%
same,inhibition at 0.1 µM,[23],-3%
same,inhibition at 0.1 µM,[24],-4%
same,inhibition at 0.1 µM,[25],1%
same,inhibition at 0.1 µM,[26],4%
same,inhibition at 0.1 µM,[27],-3%
same,inhibition at 0.1 µM,[28],0%
same,inhibition at 0.1 µM,[29],-10%
same,inhibition at 0.1 µM,[30],4%
same,inhibition at 0.1 µM,[31],-2%
same,inhibition at 0.1 µM,[32],2%
same,inhibition at 0.1 µM,[33],-3%
same,inhibition at 0.1 µM,[34],-2%
same,inhibition at 0.1 µM,[35],-4%
same,inhibition at 0.1 µM,[36],2%
same,inhibition at 0.1 µM,[37],-3%
same,inhibition at 0.1 µM,[38],-2%
same,inhibition at 0.1 µM,[39],2%
same,inhibition at 0.1 µM,[40],-7%
same,inhibition at 0.1 µM,[41],7%
same,inhibition at 0.1 µM,[42],-3%
same,inhibition at 0.1 µM,[43],-2%
